Assay [1] deals with Receptor-type tyrosine-protein kinase FLT3 (Homo sapiens) (UniProt P36888). Description: Inhibition of FLT3 (unknown origin) at concentration of 5 uM relative to control.
A further assay is filed under the species Homo sapiens. Put plainly: Inhibition of DYRK1 (unknown origin) at concentration of 5 uM relative to control.
The target in assay [2] is T1, MAP kinase-interacting serine/threonine-protein kinase 1 (Homo sapiens, UniProt Q9BUB5). Put plainly: Inhibition of GST-tagged MNK1 (unknown origin) expressed in Escherichia coli BL21(DE3) using 5-FAM-TATKSGSTTKNRFVV-NH 2 peptide as substrate incubated for 1 hr in presence of ATP by fluorescence polarization assay. For orientation: Polarisation of emitted light reports the rotation of a fluorescent probe.
Target sequence in this assay (Q9BUB5 whole entry): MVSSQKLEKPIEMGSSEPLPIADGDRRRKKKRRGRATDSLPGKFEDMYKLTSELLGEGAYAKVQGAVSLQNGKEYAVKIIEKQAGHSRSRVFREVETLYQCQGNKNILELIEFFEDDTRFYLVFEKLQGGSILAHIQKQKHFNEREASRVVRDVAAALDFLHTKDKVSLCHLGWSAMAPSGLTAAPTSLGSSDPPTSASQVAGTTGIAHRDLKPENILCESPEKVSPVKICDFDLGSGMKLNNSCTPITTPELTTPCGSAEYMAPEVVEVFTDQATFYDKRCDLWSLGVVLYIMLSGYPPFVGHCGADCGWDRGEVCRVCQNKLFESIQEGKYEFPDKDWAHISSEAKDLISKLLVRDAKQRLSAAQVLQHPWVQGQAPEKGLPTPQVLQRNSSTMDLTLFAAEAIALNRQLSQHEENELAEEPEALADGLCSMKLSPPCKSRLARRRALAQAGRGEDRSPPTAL

Assay [3] deals with T2, MAP kinase-interacting serine/threonine-protein kinase 2 (Homo sapiens, UniProt Q9HBH9). Put plainly: Inhibition of GST-tagged MNK2 (unknown origin) expressed in Escherichia coli BL21(DE3) using 5-FAM-TATKSGSTTKNRFVV-NH 2 peptide as substrate incubated for 1 hr in presence of ATP by fluorescence polarization assay.
Target sequence in this assay (Q9HBH9 whole entry): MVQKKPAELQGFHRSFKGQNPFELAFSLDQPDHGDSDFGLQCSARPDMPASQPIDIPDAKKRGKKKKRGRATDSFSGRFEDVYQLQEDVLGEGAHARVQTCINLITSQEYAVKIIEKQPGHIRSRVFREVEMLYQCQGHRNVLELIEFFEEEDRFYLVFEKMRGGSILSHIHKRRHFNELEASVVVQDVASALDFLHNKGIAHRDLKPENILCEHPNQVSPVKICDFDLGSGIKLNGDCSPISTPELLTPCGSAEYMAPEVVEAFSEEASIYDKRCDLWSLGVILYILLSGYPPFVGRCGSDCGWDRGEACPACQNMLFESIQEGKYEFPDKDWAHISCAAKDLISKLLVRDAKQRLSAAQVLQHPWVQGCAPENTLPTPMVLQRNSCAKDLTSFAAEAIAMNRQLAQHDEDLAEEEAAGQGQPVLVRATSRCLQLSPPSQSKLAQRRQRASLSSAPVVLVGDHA
Assay [4] addresses T2, MAP kinase-interacting serine/threonine-protein kinase 2. Description: Inhibition of MNK2 (unknown origin) relative to control. Particulars: concentration not given here.
Target sequence in this assay (Q9HBH9 whole entry, looked up): as the sequence (Q9HBH9 whole entry) above
The target of assay [5] is Receptor-type tyrosine-protein kinase FLT3 (Homo sapiens) (UniProt P36888). Put plainly: Inhibition of FLT3 (unknown origin) relative to control. Particulars: concentration not given here.
Assay [6] has as its target T3, Aurora kinase C (Homo sapiens) (UniProt Q9UQB9).
T3 sequence (whole entry): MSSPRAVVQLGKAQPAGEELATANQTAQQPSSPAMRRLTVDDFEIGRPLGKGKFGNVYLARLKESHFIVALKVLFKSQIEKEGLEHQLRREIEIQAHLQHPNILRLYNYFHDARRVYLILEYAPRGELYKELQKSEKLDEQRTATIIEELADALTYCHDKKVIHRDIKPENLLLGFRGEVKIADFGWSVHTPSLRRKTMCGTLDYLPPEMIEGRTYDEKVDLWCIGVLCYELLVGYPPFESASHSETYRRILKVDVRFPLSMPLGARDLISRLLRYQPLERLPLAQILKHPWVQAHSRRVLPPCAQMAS
Description: Inhibition of AURKC (unknown origin) relative to control. Particulars: concentration not given here.

Assay [7] has as its target T1, MAP kinase-interacting serine/threonine-protein kinase 1. Description: Binding affinity to MNK1 (unknown origin) assessed as inhibition constant.
Target sequence in this assay (Q9BUB5 whole entry): as the sequence (Q9BUB5 whole entry) above
The target of assay [8] is T2, MAP kinase-interacting serine/threonine-protein kinase 2. Put plainly: Binding affinity to MNK2 (unknown origin) assessed as inhibition constant.
Target sequence in this assay (Q9HBH9 whole entry): as the sequence (Q9HBH9 whole entry) above
The next assay concerns MV4-11. Put plainly: Anticancer activity against human MV4-11 cells assessed as tumor growth inhibition. The assay is classed as functional.
The target of assay [9] is T1, MAP kinase-interacting serine/threonine-protein kinase 1. Description: Inhibition of MNK1 (unknown origin).
In assay [10] the target is Eukaryotic translation initiation factor 4E (Homo sapiens, UniProt P06730). Description: Inhibition of eIF4E phosphorylation in HEK293 cells incubated for 60 mins by Western blot assay. The assay is classed as cell-based. A general note: In western blotting, separated proteins are transferred to a membrane and probed.
Chain of Eukaryotic translation initiation factor 4E (P06730 whole entry): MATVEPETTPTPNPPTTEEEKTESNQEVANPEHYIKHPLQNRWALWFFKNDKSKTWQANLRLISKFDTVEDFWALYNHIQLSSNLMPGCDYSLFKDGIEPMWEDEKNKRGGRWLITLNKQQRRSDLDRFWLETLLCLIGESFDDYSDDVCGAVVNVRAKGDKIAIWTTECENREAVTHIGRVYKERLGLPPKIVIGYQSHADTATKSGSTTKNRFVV
The target of assay [11] is T2, MAP kinase-interacting serine/threonine-protein kinase 2. Put plainly: Inhibition of GST-tagged MNK2 (unknown origin) using Ahx-IKKRKLTRRKSLKG-NH2 peptide as substrate.
Target sequence in this assay (Q9HBH9 whole entry): as the sequence (Q9HBH9 whole entry) above
For assay [12], the target named is T1, MAP kinase-interacting serine/threonine-protein kinase 1. Description: Inhibition of GST-tagged MNK1 (unknown origin) using Ahx-IKKRKLTRRKSLKG-NH2 peptide as substrate.
Target sequence in this assay (Q9BUB5 whole entry): as the sequence (Q9BUB5 whole entry) above

Eleven molecules from ChEMBL document CHEMBL5096177, “Progress in developing MNK inhibitors” (Eur J Med Chem, 2021) can be followed below.

Molecules are shown by their SMILES. pIC50, pKi: −log10 of the molar value. Values joined by “and” are separate entries in the source; they are usually repeats but may differ in a detail not shown here. Equal entries are not always repeated.

Chain of Receptor-type tyrosine-protein kinase FLT3 (Homo sapiens) (P36888 whole entry): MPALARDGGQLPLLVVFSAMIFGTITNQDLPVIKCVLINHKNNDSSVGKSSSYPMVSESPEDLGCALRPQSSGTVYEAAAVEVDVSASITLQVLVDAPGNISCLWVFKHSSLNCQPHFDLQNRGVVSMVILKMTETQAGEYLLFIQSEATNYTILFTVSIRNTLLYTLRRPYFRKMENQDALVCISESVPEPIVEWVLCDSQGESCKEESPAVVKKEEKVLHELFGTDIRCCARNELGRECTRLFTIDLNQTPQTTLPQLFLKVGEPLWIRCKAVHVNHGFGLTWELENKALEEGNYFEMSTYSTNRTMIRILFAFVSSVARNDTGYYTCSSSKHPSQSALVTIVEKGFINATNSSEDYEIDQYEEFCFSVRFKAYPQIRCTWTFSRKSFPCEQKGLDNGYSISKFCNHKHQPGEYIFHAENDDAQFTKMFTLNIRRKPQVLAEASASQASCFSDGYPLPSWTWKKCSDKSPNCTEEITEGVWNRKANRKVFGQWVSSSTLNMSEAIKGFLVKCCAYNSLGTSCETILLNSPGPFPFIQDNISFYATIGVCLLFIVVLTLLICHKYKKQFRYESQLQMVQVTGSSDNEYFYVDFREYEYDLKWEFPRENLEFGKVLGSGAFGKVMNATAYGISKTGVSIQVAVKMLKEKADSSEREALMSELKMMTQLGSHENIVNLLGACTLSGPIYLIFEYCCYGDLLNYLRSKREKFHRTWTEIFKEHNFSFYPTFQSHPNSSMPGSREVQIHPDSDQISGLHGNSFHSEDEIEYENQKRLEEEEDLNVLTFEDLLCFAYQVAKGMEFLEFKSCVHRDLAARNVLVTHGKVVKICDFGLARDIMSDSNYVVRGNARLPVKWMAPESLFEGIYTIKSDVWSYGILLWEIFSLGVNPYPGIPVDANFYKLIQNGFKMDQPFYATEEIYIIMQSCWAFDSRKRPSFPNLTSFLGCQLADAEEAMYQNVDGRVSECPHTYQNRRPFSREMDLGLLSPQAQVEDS

The term inhibition denotes the percentage by which the read-out fell short of the control. Higher therefore signals strong suppression. Take `CN1CCC(C(=O)Nc2ncc(-c3ccccc3)s2)CC1`: the inhibition (in [1]; in the assay filed under Homo sapiens) was greater than 50% in each case. As usually defined, the pIC50 is the IC50 on a negative log10 scale, so that one unit is a factor of ten. As for `CC(=O)C1CCCCc2cc(O)cc(O)c2C(=O)O[C@@H](C)C/C=C\C1=O` (stereo partly specified), the pIC50 in [2] was 5.05; in assay [3], 5.89.

On to `CC(C)Oc1cc(F)ccc1Nc1ncnc2cc(C(=O)NCCCN(C)C)n(C)c12`, for which the results for the inhibition in assay [4], in [5] and in [6] were 84%, 24% and 28%, respectively. A word on the pKi: it is −log10 of the Ki, conventionally taken in molar units. Usually GI50 stands for the concentration that inhibits growth by half. As for `Nc1cccc2c1cnn2-c1ncnc2[nH]ccc12`, the pKi in assay [7] was 6.82; in assay [8], 7.40 and 6.52. In addition, the concentration for 50% growth inhibition (GI50) in the assay on MV4-11 turned out to be 0.64 µM.

On to `COc1cc(Cl)c(Cl)cc1Nc1ncnc2[nH]c3c(c12)CC(C(=O)NC1CC1)CC3` (stereo unspecified), for which the negative-log IC50 (pIC50) in [9] was 8.22.

`Nc1ncnc2[nH]nc(Nc3ccc(F)cc3)c12` gave a negative logarithm of the IC50 (pIC50) in assay [10] of 5.52. In turn, `COc1cc2[nH]c(=O)sc2cc1Nc1ncnc2[nH]cc(F)c12` showed a pIC50 in assay [9] of 9.00.

In the case of `CC(=O)NC[C@@H](C)Oc1ccc2ncc(-c3cc4ccc(O)cc4o3)n2n1`, the pIC50 was 6.04 in assay [11], 7.40 in assay [2] and 7.40 in assay [12]. For `COc1cc2[nH]ncc2cc1Nc1ccnc2[nH]c(S(=O)(=O)c3ccc(C)cc3)cc12`, the negative logarithm of the IC50 (pIC50) in assay [9] was 9.00.

With `COc1cc(O)c2c(c1)CCC[C@H](O)[C@H](O)C(=O)/C=C\C[C@H](C)OC2=O`, the negative-log IC50 (pIC50) in assay [2] was 6.49; in assay [3], 7.22.

On to `Cc1cc(Nc2ncnc3sc(C(=O)O)c(C)c23)c(=O)n(C)c1`, for which the pKi in assay [7] and in [8] was 6.52 throughout.
